Assay results as given in patent US8471005B2 (Cephalon, Inc., priority 2008, dated 2013).
Like-named read-outs stand apart in the source and are kept apart here.

What was measured:
ALK = target: T1, ALK (Homo sapiens, UniProt Q9UM73); assay: ALK Kinase Assay (ELISA/TRF, PLC-γ substrate); type: biochemical; settings: read-out: ALK Potency
T1 construct: host or cells: baculovirus expression system
Summary of the method: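 First, plates are coated with substrate (phospholipase C-γ, 10 μg/mL, TBS). Next, 30 ng/ml ALK initiates phosphorylation for 15 min at 37° C. Then Eu-N1 PT66 antibody is added for detection, and a nonlinear dose-response fit of percent inhibition yields IC50.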

JAK2 = target: T2, JAK2 (Homo sapiens, UniProt O60674); assay: Recombinant Human JAK2 Kinase Assay (TRF); type: biochemical; settings: read-out: JAK2 Potency
T2 construct: host or cells: baculovirus expression system
T2 sequence (O60674 whole entry): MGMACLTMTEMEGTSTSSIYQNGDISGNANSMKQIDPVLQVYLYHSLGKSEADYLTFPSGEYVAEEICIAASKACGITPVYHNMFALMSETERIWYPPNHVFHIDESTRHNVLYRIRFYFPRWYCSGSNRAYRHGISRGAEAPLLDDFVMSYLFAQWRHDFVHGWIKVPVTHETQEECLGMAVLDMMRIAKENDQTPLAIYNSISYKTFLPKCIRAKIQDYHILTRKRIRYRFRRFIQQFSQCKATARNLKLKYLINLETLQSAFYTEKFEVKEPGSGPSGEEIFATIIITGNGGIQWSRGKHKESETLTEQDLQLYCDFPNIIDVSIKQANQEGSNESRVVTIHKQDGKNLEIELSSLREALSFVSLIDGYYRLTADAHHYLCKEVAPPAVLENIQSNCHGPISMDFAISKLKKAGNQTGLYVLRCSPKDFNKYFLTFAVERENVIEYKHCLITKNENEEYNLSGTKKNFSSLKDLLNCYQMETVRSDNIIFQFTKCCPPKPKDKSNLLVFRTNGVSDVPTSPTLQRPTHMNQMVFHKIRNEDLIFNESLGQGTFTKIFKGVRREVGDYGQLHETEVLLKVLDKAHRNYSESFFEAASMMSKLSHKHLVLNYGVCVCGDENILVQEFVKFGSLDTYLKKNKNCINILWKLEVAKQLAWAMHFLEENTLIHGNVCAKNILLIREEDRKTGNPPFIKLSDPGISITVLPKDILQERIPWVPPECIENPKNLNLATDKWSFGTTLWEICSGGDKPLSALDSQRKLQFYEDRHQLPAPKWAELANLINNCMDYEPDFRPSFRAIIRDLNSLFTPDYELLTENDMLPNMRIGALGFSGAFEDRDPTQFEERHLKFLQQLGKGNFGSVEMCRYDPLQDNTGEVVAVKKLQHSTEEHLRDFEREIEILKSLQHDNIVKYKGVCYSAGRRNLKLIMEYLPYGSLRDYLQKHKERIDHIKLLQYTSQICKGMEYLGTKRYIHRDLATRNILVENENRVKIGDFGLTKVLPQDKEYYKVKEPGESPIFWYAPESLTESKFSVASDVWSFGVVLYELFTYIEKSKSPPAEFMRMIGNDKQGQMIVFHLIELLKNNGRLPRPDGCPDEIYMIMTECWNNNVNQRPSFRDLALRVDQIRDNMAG
Summary of the method: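 Baculovirus-expressed JAK2 (15 ng/ml) phosphorylated a biotinylated 15-mer peptide captured on Neutravidin-coated plates, in 20 mM HEPES pH 7.2 with 0.2 μM ATP, 1 mM MnCl2, 0.1% BSA and 2.5% DMSO. Reaction ran 20 min at room temperature; phosphopeptide was detected by time-resolved fluorescence with Eu-N1-labelled PY100 antibody.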

[1] = ALK kinase inhibition, 1 μM ATP
[2] = JAK2 kinase inhibition, 0.2 μM ATP

T1 sequence (Q9UM73 19-1620): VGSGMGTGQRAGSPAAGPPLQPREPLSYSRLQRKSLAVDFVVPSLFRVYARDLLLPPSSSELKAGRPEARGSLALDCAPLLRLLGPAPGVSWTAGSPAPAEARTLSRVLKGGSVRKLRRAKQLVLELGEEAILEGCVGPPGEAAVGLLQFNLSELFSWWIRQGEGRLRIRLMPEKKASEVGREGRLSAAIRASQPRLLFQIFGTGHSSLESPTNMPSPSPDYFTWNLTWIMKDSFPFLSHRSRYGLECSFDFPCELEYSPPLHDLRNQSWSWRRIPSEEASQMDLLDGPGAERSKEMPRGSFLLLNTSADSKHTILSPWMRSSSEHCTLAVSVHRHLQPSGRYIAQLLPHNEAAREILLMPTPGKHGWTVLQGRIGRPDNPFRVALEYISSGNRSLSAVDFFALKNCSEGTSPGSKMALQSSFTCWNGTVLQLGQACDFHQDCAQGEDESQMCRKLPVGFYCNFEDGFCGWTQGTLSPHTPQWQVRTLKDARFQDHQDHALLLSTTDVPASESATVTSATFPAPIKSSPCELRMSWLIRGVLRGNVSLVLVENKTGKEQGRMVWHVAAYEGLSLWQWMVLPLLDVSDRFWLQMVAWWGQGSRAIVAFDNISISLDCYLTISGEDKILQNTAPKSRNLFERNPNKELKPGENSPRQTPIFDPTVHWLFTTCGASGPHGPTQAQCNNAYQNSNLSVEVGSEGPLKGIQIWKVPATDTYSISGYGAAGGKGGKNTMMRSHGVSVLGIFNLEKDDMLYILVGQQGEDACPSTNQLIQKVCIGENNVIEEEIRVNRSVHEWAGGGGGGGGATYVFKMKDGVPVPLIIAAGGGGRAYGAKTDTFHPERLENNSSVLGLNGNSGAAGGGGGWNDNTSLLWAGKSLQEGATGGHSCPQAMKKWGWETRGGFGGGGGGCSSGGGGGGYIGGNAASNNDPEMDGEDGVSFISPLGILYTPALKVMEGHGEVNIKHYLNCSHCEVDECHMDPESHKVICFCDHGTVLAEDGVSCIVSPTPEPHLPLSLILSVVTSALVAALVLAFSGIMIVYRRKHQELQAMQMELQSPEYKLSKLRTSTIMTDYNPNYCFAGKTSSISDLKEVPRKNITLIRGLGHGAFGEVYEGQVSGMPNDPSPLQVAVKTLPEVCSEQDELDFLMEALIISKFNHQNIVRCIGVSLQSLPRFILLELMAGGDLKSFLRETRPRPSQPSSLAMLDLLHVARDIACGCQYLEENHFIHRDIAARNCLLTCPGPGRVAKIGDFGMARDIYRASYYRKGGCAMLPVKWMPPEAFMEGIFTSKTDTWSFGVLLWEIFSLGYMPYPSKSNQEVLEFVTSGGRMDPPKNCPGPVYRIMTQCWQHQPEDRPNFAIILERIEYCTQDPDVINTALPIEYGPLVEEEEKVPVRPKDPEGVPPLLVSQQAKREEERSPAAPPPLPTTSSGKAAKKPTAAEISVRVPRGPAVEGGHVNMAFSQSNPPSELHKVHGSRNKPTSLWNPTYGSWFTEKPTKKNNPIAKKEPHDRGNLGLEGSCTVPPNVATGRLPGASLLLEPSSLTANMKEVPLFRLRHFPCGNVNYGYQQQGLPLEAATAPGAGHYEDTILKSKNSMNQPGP

Row | Compound | IC50 (ALK; [1]) | IC50 (JAK2; [2]) | IC50 (ALK; ALK Kinase Inhibition) | IC50 (JAK2; JAK2 Kinase Inhibition)
1 | COc1ccc(Nc2ncc3ccc(-c4ccccc4N(C)S(C)(=O)=O)n3n2)cc1N1CCOCC1 [Example 393, N-{2-[2-(4-Methoxy-3-morpholin-4-yl-phenylamino)-pyrrolo[2,1-f][1,2,4]triazin-7-yl]-phenyl}-N-methyl-methanesulfonamide] | – | – | < 100 nM | < 100 nM
2 | 3-(2-{2-[3-(2-Methoxy-1-methyl-ethoxy)-phenylamino]-pyrrolo[2,1-f][1,2,4]triazin-7-yl}-pyrrol-1-yl)-propionitrile [Example 1295] | > 10000 nM | 100 to 1000 nM | – | –
3 | CN1CCN(c2ccc(Nc3ncc4c(Br)cc(-c5ccc(S(C)(=O)=O)cc5)n4n3)cc2)CC1 [Example 91, [5-Bromo-7-(4-methanesulfonyl-phenyl)-pyrrolo[2,1-f][1,2,4]triazin-2-yl]-[4-(4-methyl-piperazin-1-yl)-phenyl]-amine] | – | – | 100 to 1000 nM | < 100 nM
4 | COc1ccccc1-c1ccc2cnc(Nc3ccc4c(c3OC)CN(C3COC3)C4)nn12 [Example 851, (4-Methoxy-2-oxetan-3-yl-2,3-dihydro-1H-isoindol-5-yl)-[7-(2-methoxy-phenyl)-pyrrolo[2,1-f][1,2,4]triazin-2-yl]-amine] | 100 to 1000 nM | 100 to 1000 nM | – | –
5 | COc1cc(N2CCC(N3CCOCC3)C2)ccc1Nc1ncc2ccc(-c3ccccc3N(C)S(C)(=O)=O)n2n1 (racemic) [Example 782, (±)-N-(2-{2-[2-Methoxy-4-(3-morpholin-4-yl-pyrrolidin-1-yl)-phenylamino]-pyrrolo[2,1-f][1,2,4]triazin-7-yl}-phenyl)-N-methyl-methanesulfonamide] | < 100 nM | 100 to 1000 nM | – | –
6 | COCc1ccccc1-c1ccc2cnc(Nc3ccc(N4CCC(N5CCN(C)CC5)CC4)cc3OC)nn12 [Example 538, [7-(2-Methoxymethyl-phenyl)-pyrrolo[2,1-f][1,2,4]triazin-2-yl]-{2-methoxy-4-[4-(4-methyl-piperazin-1-yl)-piperidin-1-yl]-phenyl}-amine] | < 100 nM | < 100 nM | – | –
7 | COc1ccccc1-c1ccc2cnc(Nc3cc[nH]n3)nn12 [Example 122, [7-(2-Methoxy-phenyl)-pyrrolo[2,1-f][1,2,4]triazin-2-yl]-(1H-pyrazol-3-yl)-amine] | – | – | 100 to 1000 nM | < 100 nM
8 | COc1cc(C2CCN(C(=O)CN)CC2)ccc1Nc1ncc2ccc(-c3ccccc3N(C)S(C)(=O)=O)n2n1 [Example 824, N-[2-(2-{4-[1-(2-Amino-acetyl)-piperidin-4-yl]-2-methoxy-phenylamino}-pyrrolo[2,1-f][1,2,4]triazin-7-yl)-phenyl]-N-methyl-methanesulfonamide] | < 100 nM | 1000 to 10000 nM | – | –
9 | CCN(c1ccccc1-c1ccc2cnc(Nc3ccc(C4CCN(C[C@@H](C)O)CC4)cc3OC)nn12)S(C)(=O)=O [Example 873, N-Ethyl-N-[2-(2-{4-[1-((R)-2-hydroxy-propyl)-piperidin-4-yl]-2-methoxy-phenylamino}-pyrrolo[2,1-f][1,2,4]triazin-7-yl)-phenyl]-methanesulfonamide] | < 100 nM | 100 to 1000 nM | – | –
10 | CC(=O)Nc1ccccc1-c1ccc2cnc(Nc3ccc(N4CCC(N5CCOCC5)CC4)cc3)nn12 [Example 454, N-(2-{2-[4-(4-Morpholin-4-yl-piperidin-1-yl)-phenylamino]-pyrrolo[2,1-f][1,2,4]triazin-7-yl}-phenyl)-acetamide] | – | – | 100 to 1000 nM | < 100 nM
11 | COc1cc2c(cc1Nc1ncc3ccc(-c4cccc5c4OCC5)n3n1)CCNCC2 [Example 709, [7-(2,3-Dihydro-benzofuran-7-yl)-pyrrolo[2,1-f][1,2,4]triazin-2-yl]-(8-methoxy-2,3,4,5-tetrahydro-1H-3-benzazepin-7-yl)-amine] | < 100 nM | < 100 nM | – | –
12 | C[S+]([O-])c1ccccc1-c1ccc2cnc(Nc3ccc(N4CCOCC4)cc3)nn12 (stereo not drawn) [Example 405, [7-(2-Methanesulfinyl-phenyl)-pyrrolo[2,1-f][1,2,4]triazin-2-yl]-(4-morpholin-4-yl-phenyl)-amine] | – | – | 1000 to 10000 nM | < 100 nM
13 | COc1cc(N2CCC(N3CCOCC3)CC2)ccc1Nc1ncc2ccc(-c3c(F)cccc3OC)n2n1 [Example 509, [7-(2-Fluoro-6-methoxy-phenyl)-pyrrolo[2,1-f][1,2,4]triazin-2-yl]-[2-methoxy-4-(4-morpholin-4-yl-piperidin-1-yl)-phenyl]-amine] | < 100 nM | < 100 nM | – | –
14 | C[C@H](O)CN1CCN(c2cccc(Nc3ncc4ccc(-c5ccc(S(C)(=O)=O)cc5)n4n3)c2)CC1 [Example 216, (S)-1-(4-{3-[7-(4-Methanesulfonyl-phenyl)-pyrrolo[2,1-f][1,2,4]triazin-2-ylamino]-phenyl}-piperazin-1-yl)-propan-2-ol] | – | – | 100 to 1000 nM | < 100 nM

Next, values leading:

Row | IC50 (ALK; [1]) | IC50 (JAK2; [2]) | IC50 (ALK; ALK Kinase Inhibition) | IC50 (JAK2; JAK2 Kinase Inhibition) | Compound
15 | < 100 nM | 1000 to 10000 nM | – | – | COc1cc(CN2CCN(C[C@H](C)O)CC2)ccc1Nc1ncc2ccc(-c3ccccc3N(C)S(C)(=O)=O)n2n1 [Example 1224, N-[2-(2-{4-[4-((S)-2-Hydroxy-propyl)-piperazin-1-ylmethyl]-2-methoxy-phenylamino}-pyrrolo[2,1-f][1,2,4]triazin-7-yl)-phenyl]-N-methyl-methanesulfonamide]
16 | 1000 to 10000 nM | < 100 nM | – | – | COc1ccc(-c2ccc3cnc(Nc4ccc5c(c4)NC(=O)CC5)nn23)cn1 [Example 979, 7-[7-(6-Methoxy-pyridin-3-yl)-pyrrolo[2,1-f][1,2,4]triazin-2-ylamino]-3,4-dihydro-1H-quinolin-2-one]
17 | 1000 to 10000 nM | < 100 nM | – | – | CS(=O)(=O)Nc1cccc(-c2ccc3cnc(Nc4cnn(CCN5CCOCC5)c4)nn23)c1 [Example 1195, N-(3-{2-[1-(2-Morpholin-4-yl-ethyl)-1H-pyrazol-4-ylamino]-pyrrolo[2,1-f][1,2,4]triazin-7-yl}-phenyl)-methanesulfonamide]
18 | 100 to 1000 nM | < 100 nM | – | – | CN1CCCC1COc1cc(Nc2ncc3ccc(-c4ccccc4N(C)S(C)(=O)=O)n3n2)ccc1Cl (stereo not drawn) [Example 1010, N-(2-{2-[4-Chloro-3-(1-methyl-pyrrolidin-2-ylmethoxy)-phenylamino]-pyrrolo[2,1-f][1,2,4]triazin-7-yl}-phenyl)-N-methyl-methanesulfonamide]
19 | – | – | 100 to 1000 nM | < 100 nM | NC(=O)CN1CCC(c2ccc(Nc3ncc4ccc(-c5ccccc5O)n4n3)cc2)CC1 [Example 1427, 2-(4-{4-[7-(2-Hydroxy-phenyl)-pyrrolo[2,1-f][1,2,4]triazin-2-ylamino]-phenyl}-piperidin-1-yl)-acetamide]
20 | – | – | 100 to 1000 nM | < 100 nM | CC(C)(C)NS(=O)(=O)c1cccc(-c2ccc3cnc(Nc4ccc5nc(CN6CCOCC6)[nH]c5c4)nn23)c1 [Example 1514, N-tert-Butyl-3-[2-(2-morpholin-4-ylmethyl-3H-benzimidazol-5-ylamino)-pyrrolo[2,1-f][1,2,4]triazin-7-yl]-benzenesulfonamide]
21 | 100 to 1000 nM | 100 to 1000 nM | – | – | COc1cc(CN2CCN(C(=O)CNC(=O)OC(C)(C)C)CC2)ccc1Nc1ncc2ccc(-c3ccccc3OC)n2n1 [Example 1242, [2-(4-{3-Methoxy-4-[7-(2-methoxy-phenyl)-pyrrolo[2,1-f][1,2,4]triazin-2-ylamino]-benzyl}-piperazin-1-yl)-2-oxo-ethyl]-carbamic acid tert-butyl ester]
